Laboratory results: the kinase profiling compilation of Christmann-Franck et al. (2016)

Key:
Experiment in all cases: KINOMEscan competition binding
Conditions in all cases: compound 10.0 µM
[1] = molecular target: SGK3 (human) (UniProt Q96BR1)
[2] = molecular target: DYRK2 (human) (UniProt Q92630)
[3] = molecular target: STK17A (human) (UniProt Q9UEE5)
[4] = molecular target: CDKL5 (human) (UniProt O76039)
[5] = molecular target: DCLK2 (human) (UniProt Q8N568)
[6] = molecular target: NTRK3 (human) (UniProt Q16288)
[7] = molecular target: STK17B (human) (UniProt O94768)
[8] = molecular target: DDR2 (human) (UniProt Q16832)
[9] = molecular target: CDKL1 (human) (UniProt Q00532)
[10] = molecular target: FER (human) (UniProt P16591)
[11] = molecular target: MAPKAPK5 (human) (UniProt Q8IW41)
[12] = molecular target: MYLK4 (human) (UniProt Q86YV6)
[13] = molecular target: CAMKK2 (human) (UniProt Q96RR4)
Chain of CAMKK2 (human) (Q96RR4 whole entry, looked up): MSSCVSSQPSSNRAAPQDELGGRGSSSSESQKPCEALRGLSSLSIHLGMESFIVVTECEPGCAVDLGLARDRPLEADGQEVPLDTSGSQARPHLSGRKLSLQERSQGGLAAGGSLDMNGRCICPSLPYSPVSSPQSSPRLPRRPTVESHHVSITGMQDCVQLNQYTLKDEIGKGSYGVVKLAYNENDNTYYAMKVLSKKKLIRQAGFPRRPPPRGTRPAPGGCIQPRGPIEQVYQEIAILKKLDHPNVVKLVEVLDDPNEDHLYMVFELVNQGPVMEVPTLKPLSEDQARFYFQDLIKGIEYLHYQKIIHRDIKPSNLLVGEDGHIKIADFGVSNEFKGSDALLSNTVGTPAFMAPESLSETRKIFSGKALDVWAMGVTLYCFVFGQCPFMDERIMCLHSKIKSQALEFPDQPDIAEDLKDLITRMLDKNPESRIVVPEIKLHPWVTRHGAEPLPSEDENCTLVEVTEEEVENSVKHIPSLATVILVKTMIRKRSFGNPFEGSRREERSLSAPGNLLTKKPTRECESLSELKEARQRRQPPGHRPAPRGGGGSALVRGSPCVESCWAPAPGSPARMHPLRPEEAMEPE

[14] = molecular target: CSNK1A1L (human) (UniProt Q8N752)
Chain of CSNK1A1L (human) (Q8N752 whole entry, looked up): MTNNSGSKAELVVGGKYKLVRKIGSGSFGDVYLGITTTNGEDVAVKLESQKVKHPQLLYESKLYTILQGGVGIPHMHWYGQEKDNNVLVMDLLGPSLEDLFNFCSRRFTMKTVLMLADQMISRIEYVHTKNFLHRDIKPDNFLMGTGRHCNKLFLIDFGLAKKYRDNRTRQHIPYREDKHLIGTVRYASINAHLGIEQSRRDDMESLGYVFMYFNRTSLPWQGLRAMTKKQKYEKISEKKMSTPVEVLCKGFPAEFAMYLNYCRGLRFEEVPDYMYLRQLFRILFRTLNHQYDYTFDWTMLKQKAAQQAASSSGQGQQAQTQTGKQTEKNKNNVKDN

[15] = molecular target: CDK3 (human) (UniProt Q00526)
[16] = molecular target: PRKD3 (human) (UniProt O94806)
[17] = molecular target: CAMK2D (human) (UniProt Q13557)
[18] = molecular target: FGR (human) (UniProt P09769)
[19] = molecular target: PHKG1 (human) (UniProt Q16816)
[20] = molecular target: MARK2 (human) (UniProt Q7KZI7)
[21] = molecular target: CDK2 (human) (UniProt P24941)
[22] = molecular target: RIOK3 (human) (UniProt O14730)
[23] = molecular target: MAP4K4 (human) (UniProt O95819)
[24] = molecular target: TYK2 JH2 pseudokinase (human) (UniProt P29597)
[25] = molecular target: IRAK3 (human) (UniProt Q9Y616)
[26] = molecular target: LATS2 (human) (UniProt Q9NRM7)
Chain of LATS2 (human) (Q9NRM7 whole entry, looked up): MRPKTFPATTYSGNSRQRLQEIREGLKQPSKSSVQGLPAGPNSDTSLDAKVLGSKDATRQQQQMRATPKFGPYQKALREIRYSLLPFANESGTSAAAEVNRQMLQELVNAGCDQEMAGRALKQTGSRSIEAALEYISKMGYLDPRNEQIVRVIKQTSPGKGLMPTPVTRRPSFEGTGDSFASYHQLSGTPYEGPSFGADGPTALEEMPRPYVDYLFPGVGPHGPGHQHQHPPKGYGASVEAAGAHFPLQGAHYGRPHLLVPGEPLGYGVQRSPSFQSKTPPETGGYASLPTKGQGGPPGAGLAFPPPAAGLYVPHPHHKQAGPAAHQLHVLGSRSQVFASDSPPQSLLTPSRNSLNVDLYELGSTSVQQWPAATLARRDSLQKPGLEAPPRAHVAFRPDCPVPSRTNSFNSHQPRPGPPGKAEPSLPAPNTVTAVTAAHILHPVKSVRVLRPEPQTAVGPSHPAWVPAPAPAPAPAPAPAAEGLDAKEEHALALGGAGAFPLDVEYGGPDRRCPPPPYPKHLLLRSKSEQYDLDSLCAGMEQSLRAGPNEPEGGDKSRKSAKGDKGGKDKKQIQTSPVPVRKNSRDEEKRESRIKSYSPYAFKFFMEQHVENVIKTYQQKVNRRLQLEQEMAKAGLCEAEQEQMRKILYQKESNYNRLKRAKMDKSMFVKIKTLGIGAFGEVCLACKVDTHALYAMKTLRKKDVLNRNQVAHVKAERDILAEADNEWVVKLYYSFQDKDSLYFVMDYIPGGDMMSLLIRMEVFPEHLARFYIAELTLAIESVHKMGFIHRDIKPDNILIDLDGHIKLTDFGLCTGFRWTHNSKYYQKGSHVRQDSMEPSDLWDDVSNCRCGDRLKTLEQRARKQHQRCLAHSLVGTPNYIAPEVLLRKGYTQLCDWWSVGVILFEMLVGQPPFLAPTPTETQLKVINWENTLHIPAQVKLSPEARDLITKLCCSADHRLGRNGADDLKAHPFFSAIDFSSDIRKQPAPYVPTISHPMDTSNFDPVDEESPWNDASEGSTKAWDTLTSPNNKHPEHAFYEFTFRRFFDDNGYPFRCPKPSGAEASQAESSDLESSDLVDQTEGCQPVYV

[27] = molecular target: MAP3K5 (human) (UniProt Q99683)
Chain of MAP3K5 (human) (Q99683 whole entry, looked up): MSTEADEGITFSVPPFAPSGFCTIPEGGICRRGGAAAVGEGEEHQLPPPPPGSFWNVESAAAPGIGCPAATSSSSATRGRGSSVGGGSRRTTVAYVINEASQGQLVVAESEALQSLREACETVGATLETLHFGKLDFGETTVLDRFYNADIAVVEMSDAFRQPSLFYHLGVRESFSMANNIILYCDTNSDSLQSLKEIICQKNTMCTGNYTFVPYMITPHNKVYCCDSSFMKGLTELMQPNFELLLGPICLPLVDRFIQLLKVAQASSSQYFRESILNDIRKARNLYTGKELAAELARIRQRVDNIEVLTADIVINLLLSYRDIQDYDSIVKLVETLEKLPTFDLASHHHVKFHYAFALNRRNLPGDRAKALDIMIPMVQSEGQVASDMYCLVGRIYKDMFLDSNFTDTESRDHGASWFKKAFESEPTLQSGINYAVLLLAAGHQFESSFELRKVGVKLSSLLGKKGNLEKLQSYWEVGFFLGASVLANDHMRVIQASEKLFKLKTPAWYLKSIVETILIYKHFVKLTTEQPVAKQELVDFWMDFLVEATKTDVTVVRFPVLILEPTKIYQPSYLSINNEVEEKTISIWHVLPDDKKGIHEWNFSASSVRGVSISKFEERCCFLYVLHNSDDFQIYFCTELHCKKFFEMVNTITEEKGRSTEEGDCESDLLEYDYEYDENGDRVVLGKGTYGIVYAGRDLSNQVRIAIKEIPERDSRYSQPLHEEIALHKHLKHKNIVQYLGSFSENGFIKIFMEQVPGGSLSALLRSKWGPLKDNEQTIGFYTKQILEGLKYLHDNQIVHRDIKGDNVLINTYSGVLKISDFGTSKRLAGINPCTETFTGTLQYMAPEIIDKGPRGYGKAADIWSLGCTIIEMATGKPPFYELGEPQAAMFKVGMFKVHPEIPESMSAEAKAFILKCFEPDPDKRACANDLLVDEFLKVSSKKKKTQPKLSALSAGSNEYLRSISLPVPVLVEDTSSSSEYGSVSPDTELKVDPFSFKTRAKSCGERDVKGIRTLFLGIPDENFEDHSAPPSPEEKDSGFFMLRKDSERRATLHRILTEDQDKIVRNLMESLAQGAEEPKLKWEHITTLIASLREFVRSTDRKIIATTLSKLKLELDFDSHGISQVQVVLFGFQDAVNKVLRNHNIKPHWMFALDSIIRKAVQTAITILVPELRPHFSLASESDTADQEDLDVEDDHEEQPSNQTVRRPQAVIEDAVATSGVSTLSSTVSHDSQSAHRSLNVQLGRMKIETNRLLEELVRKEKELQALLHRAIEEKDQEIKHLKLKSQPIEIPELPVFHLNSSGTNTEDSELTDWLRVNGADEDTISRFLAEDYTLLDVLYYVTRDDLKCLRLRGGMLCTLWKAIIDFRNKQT

[28] = molecular target: STK32B (human) (UniProt Q9NY57)
[29] = molecular target: CAMK2G (human) (UniProt Q13555)
[30] = molecular target: TYRO3 (human) (UniProt Q06418)
[31] = molecular target: BMPR1B (human) (UniProt O00238)
[32] = test system: MET (human), P08581 [M1250T]
[33] = molecular target: NEK2 (human) (UniProt P51955)
[34] = molecular target: MINK1 (human) (UniProt Q8N4C8)
[35] = molecular target: LYN (human) (UniProt P07948)
[36] = molecular target: MAP4K2 (human) (UniProt Q12851)
[37] = molecular target: CAMK4 (human) (UniProt Q16566)
Chain of CAMK4 (human) (Q16566 whole entry, looked up): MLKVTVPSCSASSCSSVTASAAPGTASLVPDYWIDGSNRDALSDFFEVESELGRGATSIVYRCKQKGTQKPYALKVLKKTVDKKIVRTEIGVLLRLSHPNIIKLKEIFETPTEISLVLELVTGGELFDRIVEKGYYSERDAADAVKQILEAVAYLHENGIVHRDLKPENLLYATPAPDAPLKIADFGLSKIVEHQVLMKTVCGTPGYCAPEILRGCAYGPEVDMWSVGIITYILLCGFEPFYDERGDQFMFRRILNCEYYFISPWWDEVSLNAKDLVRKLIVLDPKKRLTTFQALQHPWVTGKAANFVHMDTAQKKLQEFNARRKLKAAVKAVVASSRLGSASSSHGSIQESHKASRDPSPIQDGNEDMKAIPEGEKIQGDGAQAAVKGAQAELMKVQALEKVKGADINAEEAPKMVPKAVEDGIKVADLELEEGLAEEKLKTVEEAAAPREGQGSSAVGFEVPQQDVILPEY

[38] = molecular target: JAK3 JH1 catalytic (human) (UniProt P52333)
Chain of JAK3 JH1 catalytic (human) (P52333 whole entry, looked up): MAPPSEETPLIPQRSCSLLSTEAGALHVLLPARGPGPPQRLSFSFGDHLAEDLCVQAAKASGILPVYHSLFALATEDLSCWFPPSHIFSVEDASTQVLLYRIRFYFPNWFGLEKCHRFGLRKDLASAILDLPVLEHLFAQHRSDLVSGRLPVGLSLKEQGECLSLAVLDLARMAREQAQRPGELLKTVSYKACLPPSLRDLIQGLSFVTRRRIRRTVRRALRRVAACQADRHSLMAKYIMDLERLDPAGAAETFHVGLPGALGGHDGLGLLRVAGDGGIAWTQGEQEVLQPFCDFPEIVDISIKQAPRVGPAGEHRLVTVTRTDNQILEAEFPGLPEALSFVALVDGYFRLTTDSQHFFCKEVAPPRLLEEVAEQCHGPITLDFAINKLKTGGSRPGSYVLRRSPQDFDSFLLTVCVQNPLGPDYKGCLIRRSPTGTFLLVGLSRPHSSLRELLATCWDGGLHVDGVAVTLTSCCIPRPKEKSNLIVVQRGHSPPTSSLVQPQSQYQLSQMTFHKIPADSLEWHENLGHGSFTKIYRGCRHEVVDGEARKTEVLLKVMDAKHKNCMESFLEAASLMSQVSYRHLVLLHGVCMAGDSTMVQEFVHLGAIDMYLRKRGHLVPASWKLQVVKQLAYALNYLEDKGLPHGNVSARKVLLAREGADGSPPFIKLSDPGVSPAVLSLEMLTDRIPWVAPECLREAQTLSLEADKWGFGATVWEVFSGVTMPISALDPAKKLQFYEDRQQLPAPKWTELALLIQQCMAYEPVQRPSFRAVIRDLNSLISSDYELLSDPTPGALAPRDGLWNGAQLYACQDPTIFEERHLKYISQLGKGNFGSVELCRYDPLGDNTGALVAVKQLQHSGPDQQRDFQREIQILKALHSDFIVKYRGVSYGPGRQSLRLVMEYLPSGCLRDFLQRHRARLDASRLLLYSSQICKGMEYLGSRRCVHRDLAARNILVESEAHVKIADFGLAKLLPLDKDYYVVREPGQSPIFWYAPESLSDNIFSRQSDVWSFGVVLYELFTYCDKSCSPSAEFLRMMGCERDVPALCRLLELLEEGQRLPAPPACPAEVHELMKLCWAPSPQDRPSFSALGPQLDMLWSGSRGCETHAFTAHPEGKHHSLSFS

[39] = molecular target: CAMK1D (human) (UniProt Q8IU85)
[40] = test system: FGFR3 (human), P22607 [G697C]

Row | Compound | kinase still bound, per cent of control [1] [%] | kinase still bound, per cent of control [2] [%] | kinase still bound, per cent of control [3] [%] | kinase still bound, per cent of control [4] [%] | kinase still bound, per cent of control [5] [%] | kinase still bound, per cent of control [6] [%] | kinase still bound, per cent of control [7] [%] | kinase still bound, per cent of control [8] [%] | kinase still bound, per cent of control [9] [%] | kinase still bound, per cent of control [10] [%] | kinase still bound, per cent of control [11] [%] | kinase still bound, per cent of control [12] [%] | kinase still bound, per cent of control [13] [%] | kinase still bound, per cent of control [14] [%] | kinase still bound, per cent of control [15] [%] | kinase still bound, per cent of control [16] [%] | kinase still bound, per cent of control [17] [%] | kinase still bound, per cent of control [18] [%] | kinase still bound, per cent of control [19] [%] | kinase still bound, per cent of control [20] [%] | other results
1 | N#C/C(=C1/Nc2ccccc2S1)c1ccnc(NCCc2cccnc2)n1 | 100 | 0.7 | 100 | 82 | 100 | 69 | 100 | 100 | 45 | 100 | 100 | 16 | 54 | 67 | 100 | 84 | 64 | 100 | 100 | 75 | kinase still bound, per cent of control [21]: 90%; kinase still bound, per cent of control [22]: 33%; kinase still bound, per cent of control [23]: 93%; kinase still bound, per cent of control [24]: 1.4%; kinase still bound, per cent of control [25]: 38%; kinase still bound, per cent of control [26]: 92%; kinase still bound, per cent of control [27]: 100%; kinase still bound, per cent of control [28]: 100%; kinase still bound, per cent of control [29]: 78%; kinase still bound, per cent of control [30]: 100%; kinase still bound, per cent of control [31]: 18%; kinase still bound, per cent of control [32]: 100%; kinase still bound, per cent of control [33]: 96%; kinase still bound, per cent of control [34]: 45%; kinase still bound, per cent of control [35]: 100%; kinase still bound, per cent of control [36]: 36%; kinase still bound, per cent of control [37]: 100%; kinase still bound, per cent of control [38]: 10%; kinase still bound, per cent of control [39]: 70%; kinase still bound, per cent of control [40]: 100%
2 | CCN1CCN(Cc2ccc(NC(=O)c3ccc(C)c(/C=C/c4cnc5[nH]ccc5c4OC)c3)cc2C(F)(F)F)CC1 | 38 | 78 | 1.3 | 78 | 100 | 0.95 | 1 | 9 | 61 | 27 | 90 | 23 | 100 | 100 | 100 | 52 | 100 | 0.15 | 100 | 68 | kinase still bound, per cent of control [21]: 96%; kinase still bound, per cent of control [22]: 0.35%; kinase still bound, per cent of control [23]: 4.2%; kinase still bound, per cent of control [24]: 100%; kinase still bound, per cent of control [25]: 65%; kinase still bound, per cent of control [26]: 79%; kinase still bound, per cent of control [27]: 35%; kinase still bound, per cent of control [28]: 100%; kinase still bound, per cent of control [29]: 100%; kinase still bound, per cent of control [30]: 100%; kinase still bound, per cent of control [31]: 14%; kinase still bound, per cent of control [32]: 26%; kinase still bound, per cent of control [33]: 100%; kinase still bound, per cent of control [34]: 2.8%; kinase still bound, per cent of control [35]: 0%; kinase still bound, per cent of control [36]: 0%; kinase still bound, per cent of control [37]: 100%; kinase still bound, per cent of control [38]: 1.1%; kinase still bound, per cent of control [39]: 100%; kinase still bound, per cent of control [40]: 2.5%
3 | CNC(=O)Nc1ccc(-c2nc(N3CC4CCC(C3)O4)c3cnn(C4CCC5(CC4)OCCO5)c3n2)cc1 | 100 | 90 | 100 | 79 | 97 | 93 | 100 | 100 | 84 | 100 | 100 | 100 | 100 | 100 | 99 | 100 | 100 | 100 | 100 | 100 | kinase still bound, per cent of control [21]: 92%; kinase still bound, per cent of control [22]: 100%; kinase still bound, per cent of control [23]: 85%; kinase still bound, per cent of control [24]: 100%; kinase still bound, per cent of control [25]: 100%; kinase still bound, per cent of control [26]: 76%; kinase still bound, per cent of control [27]: 85%; kinase still bound, per cent of control [28]: 86%; kinase still bound, per cent of control [29]: 100%; kinase still bound, per cent of control [30]: 100%; kinase still bound, per cent of control [31]: 83%; kinase still bound, per cent of control [32]: 87%; kinase still bound, per cent of control [33]: 72%; kinase still bound, per cent of control [34]: 100%; kinase still bound, per cent of control [35]: 85%; kinase still bound, per cent of control [36]: 100%; kinase still bound, per cent of control [37]: 100%; kinase still bound, per cent of control [38]: 90%; kinase still bound, per cent of control [39]: 95%; kinase still bound, per cent of control [40]: 74%
